Consider 3 compounds from ChEMBL document CHEMBL1131589 (J Med Chem, 1998).

The test has as its target Cannabinoid receptor 1 (Rattus norvegicus, UniProt P20272). The test can be described thus: Displacement of [3H]CP-55940 binding to Cannabinoid receptor 1 in rat brain membranes. The class given is cell membranes. (In general: Loss of bound radioactivity is the signal in a displacement assay; it reports binding, not function.)

In general, Ki refers to a dissociation constant, usually derived from enzyme kinetics or from competition with a known ligand.

Sequence of Cannabinoid receptor 1 (P20272 whole entry): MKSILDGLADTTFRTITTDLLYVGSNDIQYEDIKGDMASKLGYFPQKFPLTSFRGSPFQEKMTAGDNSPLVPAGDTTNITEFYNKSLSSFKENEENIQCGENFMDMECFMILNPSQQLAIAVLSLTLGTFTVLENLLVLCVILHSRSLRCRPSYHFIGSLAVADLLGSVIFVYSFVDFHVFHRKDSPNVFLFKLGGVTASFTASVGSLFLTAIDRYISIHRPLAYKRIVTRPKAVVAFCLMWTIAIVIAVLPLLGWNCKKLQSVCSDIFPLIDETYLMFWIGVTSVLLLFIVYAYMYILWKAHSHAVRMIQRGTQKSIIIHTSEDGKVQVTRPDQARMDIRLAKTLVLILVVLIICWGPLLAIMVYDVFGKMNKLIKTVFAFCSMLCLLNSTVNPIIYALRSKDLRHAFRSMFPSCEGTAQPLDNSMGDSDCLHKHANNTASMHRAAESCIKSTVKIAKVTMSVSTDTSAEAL

Take `CCCCCCC(C)(C)c1ccc([C@H]2C[C@@H](O)C[C@H]3CC[C@@H](CO)C[C@@H]32)c(O)c1`: the affinity, expressed as Ki, was 0.11 nM.
`CCCCCCC(C)(C)c1cc(O)c2c(c1)OC(C)(C)[C@@H]1CC=C(CO)C[C@@H]21` displayed a Ki of 0.23 nM.
As for `CCCCCCC(C)(C)c1cc(O)c2c(c1)OC(C)(C)[C@H]1CC=C(CO)C[C@H]21` [DEXANABINOL], the figure is 360 nM.
